Data taken from patent US9187524B2, “Broad spectrum antibiotic arylomycin analogs” (The Scripps Research Institute, priority 2010, dated 2015).
In brackets after ≈: the same amount, converted by molar mass. Read-outs that look alike come from different tables or passages of the source.

Assays:
[1] = system: lepB(P29S) S. aureus 8325; assay: microbe, parasite or virus in culture; type: cell-based, Staphylococcus aureus; conditions: for MIC: Staphylococcus aureus
[2] = biological target: T1, full-length wild type E. coli SPase (Pro-variant) (Escherichia coli, UniProt P00803); assay: biochemical; type: binding
T1 construct: Full length His-tagged E. coli SPase proteins were expressed in BL21(DE3); His6; made in house; host or cells: E. coli BL21(DE3)

[3] = system: R. opacus; assay: microbe, parasite or virus in culture; type: cell-based; conditions: Rhodococcus opacus
[4] = system: E. coli and P. aeruginosa serine mutants; assay: MIC after permeabilizing with polymyxin B nonapeptide; type: cell-based
[5] = system: Lactobacillus plantarum; assay: microbe, parasite or virus in culture; type: cell-based; conditions: Lactiplantibacillus plantarum, Table 13
[6] = system: S. aureus Rosenbach 328; assay: microbe, parasite or virus in culture; type: cell-based; conditions: Staphylococcus aureus; MRSA strain
[7] = system: Francisella tularensis; assay: microbe, parasite or virus in culture; type: cell-based
[8] = system: L. lactis; assay: microbe, parasite or virus in culture; type: cell-based, Lactococcus lactis
[9] = system: Lactobacillus acidophilus; assay: microbe, parasite or virus in culture; type: cell-based; conditions: Table 13
[10] = system: C. glutamicum; assay: microbe, parasite or virus in culture; type: cell-based, Corynebacterium glutamicum; conditions: for MIC: Corynebacterium glutamicum
[11] = system: Bacteroides fragilis; assay: microbe, parasite or virus in culture; type: cell-based; conditions: Table 13
[12] = biological target: T2, full-length P84S E. coli SPase (Ser-variant) (Escherichia coli, UniProt P00803, P84S); assay: biochemical; type: binding
T2 construct: Full length His-tagged E. coli SPase proteins were expressed in BL21(DE3); His6; made in house; host or cells: E. coli BL21(DE3)

[13] = system: E. coli strains harboring the indicated amino acid at SPase residue 84; assay: microbe, parasite or virus in culture; type: cell-based; conditions: Escherichia coli
[14] = system: spsB(S29P) S. epidermidis RP62A; assay: microbe, parasite or virus in culture; type: cell-based, Staphylococcus epidermidis; conditions: for MIC: Staphylococcus epidermidis
[15] = system: Clostridium difficile; assay: microbe, parasite or virus in culture; type: cell-based; conditions: Clostridioides difficile, Table 13

## CCCCCCCCCCCCCCCC(=O)N(C)[C@H](CO)C(=O)N[C@H](C)C(=O)NCC(=O)N(C)[C@@H]1C(=O)N[C@@H](C)C(=O)N[C@H](C(=O)O)Cc2ccc(O)c(c2)-c2cc1ccc2O [Arylomycin C16]
[1]; read-out: MIC, S. aureus P29S
  MIC: 8 µg/mL (≈ 9.08 µM)
[1]; read-out: MIC, S. aureus PAS8001
  MIC: 2 µg/mL (≈ 2.27 µM)
[1]; read-out: MIC, Sensitive Sa
  MIC: 2 µg/mL (≈ 2.27 µM)
[1]; Table 2B, SPase without resistance-conferring Pro
  MIC, Sensitive Sa: 2 µg/mL (≈ 2.27 µM)
[2]
  Kd: 60 ± 16 nM
[3]; Table 4, read-out: MIC, R. opacus
  MIC: 1 µg/mL (≈ 1.13 µM)
[3]; Table 13, […], read-out: MIC, Rhodococcus opacus
  MIC: 2 µg/mL (≈ 2.27 µM)
[4]
  decrease of MIC on permeabilizing with polymyxin B nonapeptide: ≤ 4 fold
[5]
  MIC: > 128 µg/mL
[6]
  MIC: 25 µg/mL (≈ 28.4 µM)
[7]; read-out: MIC, Francisella tularensis clinical isolate
  MIC: 32 µg/mL (≈ 36.3 µM)
[7]; read-out: MIC, Francisella tularensis clinical isolates, 8 of nineteen clinical isolates
  MIC: 4 to 16 µg/mL (≈ 4.54 to 18.2 µM)
[7]; read-out: MIC, Francisella tularensis clinical isolates, remainder of nineteen clinical isolates
  MIC: > 64 µg/mL
[8]; Lactococcus lactis, Table 4
  MIC: 16 µg/mL (≈ 18.2 µM)
[8]; Table 13, multiple values: different strains
  MIC, Lactococcus lactis: 16 µg/mL (≈ 18.2 µM)
[8]; one SPase with Leu29
  sensitivity of Lactococcus lactis spp. cremonis: sensitive
[8]; single SPase with Leu29
  sensitivity of Lactococcus lactis spp. lactii: resistant
[9]
  MIC: > 128 µg/mL
[10]; Table 4, read-out: MIC, C. glutamicum
  MIC: 2 µg/mL (≈ 2.27 µM)
[10]; text b755, read-out: MIC, Corynebacterium glutamicum
  MIC: 2 µg/mL (≈ 2.27 µM)
[10]; Table 13, […]
  MIC, Corynebacterium glutamicum: 2 µg/mL (≈ 2.27 µM)
[11]
  MIC: > 16 µg/mL
[12]
  Kd: 5.7 ± 1 nM
[13]; read-out: MIC, E. coli SPase residue 84 His variant
  MIC: 4 µg/mL (≈ 4.54 µM)
[13]; read-out: MIC, E. coli SPase residue 84 Phe or His variant
  MIC: 2 µg/mL (≈ 2.27 µM)
[13]; read-out: MIC, E. coli with Pro at SPase residue 84
  MIC: > 256 µg/mL
[13]; read-out: MIC, E. coli with any other amino acid at SPase residue 84
  MIC: ≤ 16 µg/mL
[14]; read-out: MIC, Resistant Se
  MIC: 8 µg/mL (≈ 9.08 µM)
[14]; read-out: MIC, S. epidermidis PAS9001
  MIC: 8 µg/mL (≈ 9.08 µM)
[14]; read-out: MIC, resistant S. epidermidis
  MIC: 8 µg/mL (≈ 9.08 µM)
[14]; Table 2B, SPase with resistance-conferring Pro
  MIC, Resistant Se: 8 µg/mL (≈ 9.08 µM)
[14]; ~75% of selected S. epidermidis mutants
  fold elevated MIC compared to the wild type strain, Ser to Pro at position 29: 32 fold
[15]
  MIC: > 16 µg/mL
